For experiment [1], the target named is phencyclidine (PCP) receptors. Nature of the experiment: Inhibition of [^3 H]TCP receptor binding (RBS1). As for the experimental part:
The ability of the compounds of the instant invention to interact with phencyclidine (PCP) receptors which represents a noncompetitive NMDA antagonist binding site, is shown in Table 1. Tritiated 1[1-(2-thienyl)cyclohexyl]piperidine (TCP) binding, designated RBS1, was carried out essentially as described in J. Pharmacol. Exp. Ther., 238, 739-749 (1986).

For experiment [2], the system named is cultured rat cortical neurons. Nature of the experiment: Inhibition of glutamate stimulated [^45 Ca] influx (GCI) into cultured rat cortical neurons. It counts as cell-based. The settings on record: Cortical neurone, read-out: CGCI IC50. An excerpt: (§1) Since the influx of calcium is thought to be central to the damage resulting from ischemia, the ability of the compounds of the instant invention to inhibit the hypoxia and glutamate-stimulated influx of calcium into cultured rat cortical neurons (an assay representative of cerebrovascular disorders resulting from stroke or brain injury) is shown in Table 2 and Table 3, respectively. The methodology for determining the ability of the compounds of the instant invention to inhibit the glutamate-stimulated calcium influx (GCI) into cultured rat cortical neurons is to be found in: A. W. Probert and F. W. Marcoux, Soc. Neurosci. Abstr. 13, Part II, 754 (1987). Using a similar culture system, the ability of the compounds of the instant invention to inhibit the hypoxia-stimulated influx of calcium (HCI) was determined by incubating cultured cells in an atmosphere of nitrogen (95%) and CO2 (5%) at 37° C. for a period of four hours. Calcium influx was determined by subtraction of the stimulated influx in the presence of tetrodotoxin (3 μM) and magnesium (10 mM) from that found in the absence (control) and in the presence of the test substance.

The subject of experiment [3] is cultured rat cortical neurons. Nature of the experiment: Inhibition of hypoxia stimulated [^45 Ca] influx (HCI) into cultured rat cortical neurons. It counts as cell-based. Conditions: Cortical neurone, 4 h, hypoxia stimulated [^45 Ca] influx (CHCI), Table 3, nitrogen (95%) and CO2 (5%), 37° C., four hours, read-out: CGCI IC50.
Text: as §1

Molecules are shown by their SMILES. Counter-ions that a name gives are not always drawn.

Regarding `CN[C@]12CCCC[C@H]1CCc1ccccc12` (relative stereo) [Example 4, Cis-1,3,4,9,10,10a-hexahydro-N-methyl-4a(2H)-phenanthrenamine monohydrochloride], the IC50 in experiment [1] was determined as 15 nM; in experiment [2], 410 nM; in experiment [3] it was 180 nM.
On the same counts, the results for `C=CCN[C@]12CCCC[C@H]1CCc1ccccc12` (relative stereo) [Example 5, N-Allyl-cis-1,3,4,9,10,10a-hexahydro-4a(2H)-phenanthrenamine monohydrochloride] are 100 nM, 902 nM and 660 nM.
For the molecule `N[C@]12CCCC[C@H]1CCc1ccccc12` (relative stereo) [Example 2, Cis-1,3,4,9-10,10a-hexahydro-4a(2H)-phenanthrenamine monohydrochloride], the values for the IC50 in experiment [1] and in experiment [2] were 20 nM and 100 nM, respectively.
For the molecule `CNC12CCCCC1Cc1ccccc12` (stereo not drawn) [* (X = CH2)], the IC50 in experiment [1] was 16 nM.
The same measure, in the same setting: for `c1csc(C2(N3CCCCC3)CCCCC2)c1` [TCP, 1[1-(2-thienyl)cyclohexyl]piperidine] the value was 9 nM.
In the case of `CNC12CCCCC1Sc1ccccc12` (stereo not drawn) [* (X = S), reference compound], the figures for the IC50 in experiment [2] and in experiment [3] were 210 nM and 180 nM, respectively.

A word on the IC50: it is the concentration that gives 50% inhibition.

(Values after US5276053A, “Polycyclic amines useful as cerebrovascular agents” (Warner-Lambert Company, priority 1992, dated 1994).)
